System: B16-SIY cells
Assay: Unaffected fraction (synergy) analysis of tumor growth inhibition of combination therapies
Format: in vivo, C57BL/6 mice
Conditions: for Predicted TGI: expected for purely additive effect
Protocol: Treatment was initiated on day 4 post tumor inoculation with the following regimens for each drug. αCTLA-4 antibody (clone UC10-4F10-11, Bio-X-Cell) was given i.p. on day 4, 7 and 10 at a dose of 100 μg/mouse. αPD-L1 antibody (clone 10F.9G2, Bio-X-Cell) was given i.p. (100 μg/mouse) every other day starting on day 4 ending on day 16 post tumor inoculation. IDOi (INCB23843, Incyte Corporation) was dissolved in 0.5% methylcellulose and administered at 300 mg/kg po QD on a 5 days on/2 days off schedule starting on day 4. In the case of functional experiments with an earlier endpoint, treatment regimens were carried out as described until the day of T cell analysis. A comparison between IDOi and IDOc (INCB24360, Incyte Corporation) was perfomed according to the treatment regime described above. Tumor outgrowth was followed starting day 7 onwards and is depicted in combination with anti-CTLA4 (FIG. 18A) or anti-PD-L1 (FIG. 18B). N=5 mice per group, and a two-way Anova test was used to determine significance between the groups.
Treatment was administered in the same fashion as described for FIG. 9, with the exception that IDOi (INCB23843) was replaced by IDOc (INCB24360) in the indicated groups.
Synergy analysis was performed with day 15 data and with day 23 data. Actual tumor growth inhibition (TGI) is the experimental TGI seen in this experiment for the combinations, and predicted TGI is the TGI that would have been expected for a purely additive combination effect from the performance of the individual agents in this experiment. Actual TGIs higher than predicted TGIs reflect better than additive (synergistic) data.

[1] = Day 15 (end of dosing), in combination with anti CTLA4
[2] = Day 15 (end of dosing), in combination with antiPDL1
[3] = Day 23 (last day of vehicles), in combination with anti CTLA4
[4] = Day 23 (last day of vehicles), in combination with antiPDL1

NS(=O)(=O)NCCNc1nonc1/C(=N/O)Nc1ccc(F)c(Br)c1 [IDOc]
Actual TGI [1]: 74% | Predicted TGI [1]: 66% | Actual TGI [2]: 81% | Predicted TGI [2]: 24% | Actual TGI [3]: 93% | Predicted TGI [3]: 65% | Actual TGI [4]: 82% | Predicted TGI [4]: 35%
